{
  "source": "patent US7405214B2",
  "about": "“Nucleoside derivatives and therapeutic use thereof” (Rexahn Corporation, priority 2004, dated 2008)",
  "key": {"[1]": {"system": "A549 (lung)", "test": "SRB cell growth inhibition assay, A549", "format": "cell-based", "details": "Homo sapiens, A549, 96 hours", "from_the_text": "(§1) Cancer cell lines to determine the effect of nucleoside compounds were obtained from the following sources: Human OVCAR-3 (ovary), MCF-7 (breast, hormone-dependent), MDA-MB-231 (breast), HeLa (cervix), PC3 (prostate), LNCap (prostate), HepG2 (liver), A549 (lung), NCI-H226 (lung), HT-29 (colon), HCT116 (colon), SK-MEL-28 (melanoma) and PANC-1 (pancreas) from the American Type Culture Collection (ATCC) (Manassas, Va.); U251 (brain) from Riken (Japan); MKN-45 (stomach) from DSMZ (Germany); UMRC2 (kidney) from the United States National Cancer Institute (Bethesda, Md.). […]\n(§2) The growth inhibition assay of RX-3117 against 16 human tumor cell lines was performed using the Sulforhodamine B (“SRB”) method (Skehan et al., J. National Cancer Institute, 82: 1107-1112 (1990)). […] After 5 minutes agitation in 10 mM Tris solution, the absorbance of each well was measured at 530 nm using Benchmark Plus Microplate reader (Bio-Rad Laboratories, Hercules, Calif.).\n(§3) To translate the OD530 values into the number of live cells in each well, the OD530 values were compared to those on standard OD530—versus—cell number curves generated for each cell line. The percent survival was calculated using the formula: % Survival=live cell number[test]/live cell number[control]×100\n(§4) The IC50 values were calculated by non-linear regression analysis."}, "[2]": {"system": "HCT116 (colon)", "test": "SRB cell growth inhibition assay, HCT116", "format": "cell-based", "details": "Homo sapiens, HCT-116, HCT116, 96 hours", "from_the_text": "as §1, §2, §3, §4"}, "[3]": {"system": "LnCap (prostate)", "test": "SRB cell growth inhibition assay, LnCap", "format": "cell-based", "details": "Homo sapiens, 96 hours", "from_the_text": "as §1, §2, §3, §4"}, "[4]": {"system": "NCI-H226 (lung)", "test": "SRB cell growth inhibition assay, NCI-H226", "format": "cell-based", "details": "Homo sapiens, NCI-H226, 96 hours", "from_the_text": "as §1, §2, §3, §4"}, "[5]": {"system": "U251 (brain)", "test": "SRB cell growth inhibition assay, U251", "format": "cell-based", "details": "Homo sapiens, U-251, U251, 96 hours", "from_the_text": "as §1, §2, §3, §4"}, "[6]": {"system": "MDA-MB-231 (breast)", "test": "SRB cell growth inhibition assay, MDA-MB-231", "format": "cell-based", "details": "Homo sapiens, MDA-MB-231, 96 hours", "from_the_text": "as §1, §2, §3, §4"}, "[7]": {"system": "PANC-1 (pancreas)", "test": "SRB cell growth inhibition assay, PANC-1", "format": "cell-based", "details": "Homo sapiens, PANC-1, 96 hours", "from_the_text": "as §1, §2, §3, §4"}, "[8]": {"system": "SK-MEL-28 (melanoma)", "test": "SRB cell growth inhibition assay, SK-MEL-28", "format": "cell-based", "details": "Homo sapiens, SK-MEL-28, 96 hours", "from_the_text": "as §1, §2, §3, §4"}, "[9]": {"system": "OVCAR-3 (ovary)", "test": "SRB cell growth inhibition assay, OVCAR-3", "format": "cell-based", "details": "Homo sapiens, OVCAR-3, 96 hours", "from_the_text": "as §1, §2, §3, §4"}, "[10]": {"system": "PC3 (prostate)", "test": "SRB cell growth inhibition assay, PC3", "format": "cell-based", "details": "Homo sapiens, PC3, 96 hours", "from_the_text": "as §1, §2, §3, §4"}, "[11]": {"system": "MKN-45 (stomach)", "test": "SRB cell growth inhibition assay, MKN-45", "format": "cell-based", "details": "Homo sapiens, MKN-45, 96 hours", "from_the_text": "as §1, §2, §3, §4"}, "[12]": {"system": "HepG2 (liver)", "test": "SRB cell growth inhibition assay, HepG2", "format": "cell-based", "details": "Homo sapiens, HepG2, 96 hours", "from_the_text": "as §1, §2, §3, §4"}, "[13]": {"system": "HCT116 human colon carcinoma xenografts", "test": "Xenograft study in nude mice", "format": "in vivo", "details": "intraperitoneal, three times per week day 5 to day 37; for tumor volume compared to the controls: after day 37", "protocol": "In order to observe the inhibition of growth of tumor in an animal model, an […] xenograft study of nude mice was conducted utilizing RX-3117. Suitable human cancer cell lines are those that have been tested already for inhibition of cancer cell growth, and particularly preferred was colon carcinoma HCT116. The antitumor efficacy of RX-3117 was evaluated against subcutaneously injected tumor xenografts in nude mice and tumor volume was measured after the treatment of RX-3117.\nHCT116 cell suspension (2×10^6 cells in 0.1 ml of RPMI) was injected subcutaneously into the right flank of six-week-old male athymic mice (BALB/c nu/nu) on day 0. A sufficient number of mice were injected with HCT116 cell suspension so that tumors in a volume range as narrow as possible were selected for the trial on the day of treatment initiation. Animals with tumors in the proper size range were assigned to various treatment groups. RX-3117 was dissolved in 10% DMSO in PBS and solvent alone served as control. All study medications (control, RX-3117: 2 mg/kg/day, RX-3117: 10 mg/kg/day) were given by intraperitoneal injections three times per week starting from day 5 and ending on day 37. To quantify tumor growth, three perpendicular diameters of the tumors were measured with calipers every 3-5 days, and the body weight of the mice was monitored for toxicity. The tumor volume was calculated using the formula: tumor volume (mm^3)=(width)×(length)×(height)×π/6."}, "[14]": {"system": "MCF-7 (breast, hormone-dependent)", "test": "SRB cell growth inhibition assay, MCF-7", "format": "cell-based", "details": "Homo sapiens, MCF7, MCF-7, 96 hours", "from_the_text": "as §1, §2, §3, §4"}, "[15]": {"system": "UMRC2 (kidney)", "test": "SRB cell growth inhibition assay, UMRC2", "format": "cell-based", "details": "Homo sapiens, UMRC2, 96 hours", "from_the_text": "as §1, §2, §3, §4"}, "[16]": {"system": "HeLa (cervix)", "test": "SRB cell growth inhibition assay, HeLa", "format": "cell-based", "details": "Homo sapiens, 96 hours", "from_the_text": "as §1, §2, §3, §4"}, "[17]": {"system": "HT-29 (colon)", "test": "SRB cell growth inhibition assay, HT-29", "format": "cell-based", "details": "Homo sapiens, HT-29, 96 hours", "from_the_text": "as §1, §2, §3, §4"}},
  "data": [
    {"smiles": "Nc1ccn([C@@H]2C(F)=C(CO)[C@@H](O)[C@H]2O)c(=O)n1", "note": "[RX-3117, (1S,4R,5S)-4-Amino-1-(2-fluoro-4,5-dihydroxy-3-hydroxymethyl-cyclopent-2-enyl)-1H-pyrimidin-2-one]", "values": [
      {"measurement": "IC50", "setting": "[1]", "result": 500, "unit": "nM"},
      {"measurement": "IC50", "setting": "[2]", "result": 190, "unit": "nM"},
      {"measurement": "IC50", "setting": "[3]", "result": 2670, "unit": "nM"},
      {"measurement": "IC50", "setting": "[4]", "result": 250, "unit": "nM"},
      {"measurement": "IC50", "setting": "[5]", "result": 830, "unit": "nM"},
      {"measurement": "IC50", "setting": "[6]", "result": 180, "unit": "nM"},
      {"measurement": "IC50", "setting": "[7]", "result": 620, "unit": "nM"},
      {"measurement": "IC50", "setting": "[8]", "result": 1380, "unit": "nM"},
      {"measurement": "IC50", "setting": "[9]", "result": 800, "unit": "nM"},
      {"measurement": "IC50", "setting": "[10]", "result": 630, "unit": "nM"},
      {"measurement": "IC50", "setting": "[11]", "result": 340, "unit": "nM"},
      {"measurement": "IC50", "setting": "[12]", "result": 790, "unit": "nM"},
      {"measurement": "tumor volume compared to the controls", "setting": "[13]; 2 mg/kg/day", "result": "significantly reduced"},
      {"measurement": "tumor volume compared to the controls", "setting": "[13]; 10 mg/kg/day", "result": "significantly reduced"},
      {"measurement": "body weight fluctuations", "setting": "[13]; 2 and 10 mg/kg/day", "result": "no more than 1 g"},
      {"measurement": "IC50", "setting": "[14]", "result": 340, "unit": "nM"},
      {"measurement": "IC50", "setting": "[15]", "result": 830, "unit": "nM"},
      {"measurement": "IC50", "setting": "[16]", "result": 1350, "unit": "nM"},
      {"measurement": "IC50", "setting": "[17]", "result": 280, "unit": "nM"}
    ]}
  ]
}
